Molecules are shown by their SMILES. Converted amounts (≈) assume the structure as drawn.

Common to all, as to assay: Antifungal activity of isolated borrelidin in vitro
For test [1], the system named is P. aphanidermatum. The test is classed as cell-based. Particulars: Pythium aphanidermatum. The method, then: (§1) 1. The antifungal activity of the isolated borrelidin was tested against P. aphanidermatum, P. splendens, P. sylvaticum, P. capsici and Phytophthora ultimum in vitro.
(§2) 2. The isolated borrelidin was dissolved in methanol. Pasteurized, molten PDA (50 ml) was allowed to cool to 50° C. and mixed with 0.1 ml of borrelidin in methanol. Each fungal strain was tested at a specific concentration (max. 0.2 mg/l), or diluted concentration. A series of five concentrations was used to determine EC50 (the concentration at which 50% fungal growth is inhibited).
(§3) 3. PDA medium (50 ml) was mixed with 0.1 ml of borrelidin in methanol.
(§4) 4. The pathogenic fungi (2 mm mass) were inoculated. A microtitration plate added with methanol was used as control. The inhibition (%) was calculated when the control was fully covered with fungal mass, and EC50 was determined.

For test [2], the system named is P. capsici. Format: cell-based. The note with it: Phytophthora capsici. The method, then:
as §1, §2, §3, §4

In test [3] the test system is P. splendens. Format: cell-based, Pythium splendens. The note with it: Globisporangium splendens. The method, then:
as §1, §2, §3, §4

The subject of test [4] is P. sylvaticum. Format: cell-based, Pythium sylvaticum. Particulars: Globisporangium sylvaticum. The method, then:
as §1, §2, §3, §4

Test [5] concerns P. ultimum. The test is classed as cell-based, Pythium ultimum. The note with it: Globisporangium ultimum. The method, then: as §1, §2, §3, §4
[6] abbreviates: 0.025 mg/l in PDA, read-out: Growth Inhibition (%).
[7] abbreviates: 0.05 mg/l in PDA, read-out: Growth Inhibition (%).
Setting [8] is: 0.2 mg/l in PDA, read-out: Growth Inhibition (%).
The mark [9] stands for this setting: concentration at which 50% fungal growth is inhibited.

In the case of `CC1CC(C)CC(C)C(O)/C(C#N)=C\C=C\CC(C2CCCC2C(=O)O)OC(=O)CC(O)C(C)C1` (centres unmarked) [borrelidin, 2-[7-cyano-8,16-dihydro-9,11,13,15-tetramethyl-18-oxooxacyclooctadeca-4,6(E, Z)-diene-2-yl]cyclopentacarboxylic acid], the inhibition (in general, the percentage by which the read-out fell short of the control) at 0.025 µg/mL in test [1] (setting [6]) turned out to be 14%; in test [2] (setting [6]), 41%; in test [3] (setting [6]), 36%; in test [4] (setting [6]) it was 80%; in test [5] (setting [6]), 0%. For the same compound, the inhibition at 0.05 µg/mL was 45% in test [1] (setting [7]); 70% in test [2] (setting [7]); 70% in test [3] (setting [7]); 99% in test [4] (setting [7]); 17% in test [5] (setting [7]). Moreover, the inhibition at 0.2 µg/mL in test [1] (setting [8]) was determined as 99%; in test [2] (setting [8]), 92%; in test [3] (setting [8]) it was 99%; in test [4] (setting [8]), 100%; in test [5] (setting [8]), 83%. For the same compound, the EC50 (as a rule, the concentration at which the effect is half-maximal) came to 0.06 µg/mL (≈ 0.123 µM) in test [1] (setting [9]); 0.027 µg/mL (≈ 0.0551 µM) in test [2] (setting [9]); 0.03 µg/mL (≈ 0.0613 µM) in test [3] (setting [9]); 0.01 µg/mL (≈ 0.0204 µM) in test [4] (setting [9]); 0.1 µg/mL (≈ 0.204 µM) in test [5] (setting [9]).

(Values after patent US6509373B1, “Strain of streptomyces, and relevant uses thereof” (Development Center for Biotechnology, priority 1998, dated 2003).)
